From patent US11560529B2, “Galactarate based metal sequestration composition” (ZestBio, Inc., priority 2019, dated 2023)

What was measured:
[1] = Calcium sequestration by titration with calcium chloride in presence of sodium oxalate until slight turbidity; type: physicochemical; settings: 20° C.; for Calcium sequestration capacity, mg Ca^2+/g mixture: Table 4
Protocol: Salt mixtures of galactaric acid were prepared to the desired composition by mixing sodium galactarate with either sodium borate decahydrate or sodium aluminate to a final weight of 10 grams. In an alternative preparation, galactaric acid was mixed with either sodium borate decahydrate or sodium aluminate. The resulting mixture was dissolved in a stoichiometric solution of sodium hydroxide.
The efficacy of different mixtures of galactaric acid salts and oxyanion salts in sequestering calcium at 20° C. were tested. First, salt mixtures were dissolved in deionized water at 5 g/L. Sodium oxalate stock solution, prepared at 20 g/Land pH 10, was then added to the mixture solution to yield a final concentration of 1 g/L sodium oxalate. The pH was adjusted to 10 for mixtures containing borate as the oxyanion and to 11 for mixtures containing aluminate as the oxyanion with 1M sodium hydroxide or 1M hydrochloric acid. The resulting solutions were aliquoted to 50 mL and slowly titrated with stirring by addition of a 15 g/L anhydrous calcium chloride solution at a rate of 1 mL every 3 minutes until slight turbidity was observed, indicating saturation of calcium by the chelant mixture.
The effect of pH on calcium sequestration by mixtures of galactaric acid salts and oxyanion salts at room temperature was assayed. Mixtures of 70% disodium galactarate and 30% sodium aluminate and 60% disodium galactarate and 40% sodium borate decahydrate were prepared. The resulting mixtures were dissolved in deionized water at 5 g/L and the calcium sequestering capacity was determined, as described above, with the exception that the pH was adjusted to the indicated pH with either 1M sodium hydroxide or 1M hydrochloric acid.
The calcium chelating capacity of a variety of standard compounds and mixtures was determined for 5 g/L solutions dissolved in water, as described above. In all instances the temperature was 20° C. and except where noted, the pH of solution was adjusted to 10 before determination.

[2] = Qualitative solubility of sodium galactarate in water-based solutions; settings: for solubility at 15 min / solubility at 50 min: 20 °C, thermodynamic from solid, 0.5 g in 50 mL, 20 C, stirring; for solubility at 15 min: Solubility after 15 min.; for solubility at 50 min: Solubility after 50 min.
Protocol: To characterize the solubility of sodium galactarate, 0.5M solutions of alkali salts and non-alkali base were prepared in deionized water. To 50 mL of each solution 0.5 g of sodium galactarate, was added at 20° C. with stirring.

[3] = pH 10, aqueous buffer, 0.5M NH4OH (pH 10)

O=C([O-])CC[C@@H](C(=O)[O-])N(CC(=O)[O-])CC(=O)[O-].[Na+].[Na+].[Na+].[Na+] [GLDA, N,N-Dicarboxymethyl glutamic acid tetrasodium salt]
Calcium sequestration capacity, mg Ca^2+/g mixture ([1]; pH 10, 5 g/L in water): 80 mg Ca^2+/g mixture
Calcium sequestration capacity, mg Ca^2+/g mixture ([1]; pH 11, 5 g/L in water): 132 mg Ca^2+/g mixture

O.O.O=C([O-])CN(CCN(CC(=O)O)CC(=O)O)CC(=O)[O-].[Na+].[Na+] [EDTA, Ethylenedinitrilo Tetraacetic Acid Disodium Salt Dihydrate]
Calcium sequestration capacity, mg Ca^2+/g mixture ([1]; pH 10, 5 g/L in water): 104 mg Ca^2+/g mixture

O=C([O-])CC(O)(CC(=O)[O-])C(=O)[O-].[Na+].[Na+].[Na+] [Trisodium citrate, trisodium citrate]
Calcium sequestration capacity, mg Ca^2+/g mixture ([1]; pH 10, 5 g/L in water): 32 mg Ca^2+/g mixture

O=C([O-])[C@@H](O)[C@H](O)[C@H](O)[C@@H](O)C(=O)[O-].[Na+].[Na+] [sodium galactarate]
Effect of lithium ions present in solution on dissolution ([2]; 20° C.): accelerated dissolution
Effect of sodium ions in solution (sodium chloride or sodium hydroxide) on dissolution ([2]; 20° C.): inhibited the dissolution
Solubility (in words) ([2]; 20° C.): soluble in water-based solutions and under basic conditions
solubility at 15 min ([2]; aqueous buffer, 0.5M LiCl): > 10000 µg/mL
solubility at 15 min ([2]; aqueous buffer, 0.5M NaOH): < 10000 µg/mL
solubility at 50 min ([2]; aqueous buffer, 0.5M LiCl): > 10000 µg/mL
solubility at 50 min ([2]; aqueous buffer, 0.5M NaOH): < 10000 µg/mL
solubility at 15 min [2, 3]: < 10000 µg/mL
solubility at 50 min [2, 3]: > 10000 µg/mL
solubility at 15 min ([2]; saline or isotonic, 0.5M NaCl): < 10000 µg/mL
solubility at 50 min ([2]; saline or isotonic, 0.5M NaCl): < 10000 µg/mL
solubility at 15 min ([2]; water, Water): < 10000 µg/mL
solubility at 50 min ([2]; water, Water): > 10000 µg/mL
Calcium sequestration, mg Ca^2+/g mixture ([1]; Table 2, no oxyanion salt, pH not stated, 5 g/L, 1 g/L sodium oxalate): 5 mg Ca^2+/g mixture
